Data published in paper PMC7396449, “Biochemical determinants of the IGFBP‐3–hyaluronan interaction” (FEBS Open Bio, 2020).
Values belong to the substance of their own block, whether it stands above or below them. Ends that are not written are not given here.

What was measured:
IGFBP‐3 Glycosylated = molecular target: T1, IGFBP‐3 Glycosylated (Homo sapiens, UniProt P17936); assay: ELISA binding of biotin-HA or biotin-HN to immobilized glycosylated IGFBP-3; settings: glycosylated IGFBP-3 (50 nM) coated; 0–2 μM biotin-ligand, overnight 4 °C; mean ± SD of three independent experiments in triplicate; read-out: concentration of biotin-HA or biotin-HN that produced 50% of maximum binding
T1 construct: We therefore elected to use the full‐length IGFBP‐3 protein to examine the effect of glycosylation; His; purchased Speed BioSystems YCP1009
T1 sequence (P17936 28-291): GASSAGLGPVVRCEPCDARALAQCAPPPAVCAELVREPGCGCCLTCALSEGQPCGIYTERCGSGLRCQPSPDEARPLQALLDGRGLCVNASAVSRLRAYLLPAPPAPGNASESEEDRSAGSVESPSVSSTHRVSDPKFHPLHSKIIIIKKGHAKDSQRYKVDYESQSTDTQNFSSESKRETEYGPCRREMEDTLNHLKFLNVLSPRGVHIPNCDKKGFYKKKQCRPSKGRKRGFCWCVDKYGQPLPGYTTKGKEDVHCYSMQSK
Experimental: (§1) ELISA was conducted as we reported previously. Nunc MaxiSorp 96‐well flat‐bottom plates (Thermo Fisher, Waltham, MA, USA) were coated with samples as indicated. The plates were incubated overnight at 4 °C on a shaker to allow binding of the samples to the plate wells. After the incubation, the wells were washed 4× with TBST, filled with 400 µL blocking buffer (110 mM KCl, 5 mM NaHCO3, 5 mM MgCl2, 1 mM EGTA, 0.1 mM CaCl2, 20 mM HEPES, 1% BSA, pH 7.4), and incubated overnight at 4 °C on a shaker. The wells were then washed 4× with TBST, and 100 µL of sample at the desired concentration was added to each well before incubating overnight at 4 °C on a shaker. TBST was then used to wash the wells 4× before proceeding in one of two ways: (a) Biotinylated samples were analyzed by adding 100 µL streptavidin–HRP conjugate in TBST (1 : 2500 dilution) to the samples before incubating for 3 h at RT on a shaker, or (b) samples without biotin were analyzed by adding 100 µL TBST containing the primary antibody at the manufacturer's recommendation and incubating for 3 h at RT on a shaker before washing 4× with TBST. […] The reaction was stopped with 100 µL 2 M H2SO4 after incubating at RT for 0.5–15 min, resulting in a yellow color change that was measured by absorbance at 450 nm. […] Statistical analysis was determined by the GRAPHPAD PRISM 8.4.2 software (San Diego, CA, USA). […]

[1] = molecular target: T2, IGFBP‐3 Glycosylated/Reduced (Homo sapiens, UniProt P17936); assay: ELISA binding of biotin-HA or biotin-HN to immobilized glycosylated/reduced IGFBP-3; settings: glycosylated/reduced (TCEP, NEM) IGFBP-3 (50 nM) coated; 0–2 μM biotin-ligand, overnight 4 °C; mean ± SD of three independent experiments in triplicate; read-out: concentration of biotin-HA or biotin-HN that produced 50% of maximum binding
T2 construct: We therefore elected to use the full‐length IGFBP‐3 protein to examine the effect of glycosylation; His; purchased Speed BioSystems YCP1009
T2 sequence (P17936 28-291): as above
Experimental: as §1

IGFBP‐3 Nonglycosylated = molecular target: T3, IGFBP‐3 Nonglycosylated (Homo sapiens, UniProt P17936); assay: ELISA binding of biotin-HA or biotin-HN to immobilized nonglycosylated IGFBP-3; settings: nonglycosylated IGFBP-3 (50 nM) coated; 0–2 μM biotin-ligand, overnight 4 °C; mean ± SD of three independent experiments in triplicate; read-out: concentration of biotin-HA or biotin-HN that produced 50% of maximum binding
T3 construct: We therefore elected to use the full‐length IGFBP‐3 protein to examine the effect of glycosylation; purchased MyBioSource MBS142177
T3 sequence (P17936 28-291): as above
Experimental: as §1

[2] = molecular target: T4, IGFBP‐3 Nonglycosylated/Reduced (Homo sapiens, UniProt P17936); assay: ELISA binding of biotin-HA or biotin-HN to immobilized nonglycosylated/reduced IGFBP-3; settings: nonglycosylated/reduced (TCEP, NEM) IGFBP-3 (50 nM) coated; 0–2 μM biotin-ligand, overnight 4 °C; mean ± SD of three independent experiments in triplicate; read-out: concentration of biotin-HA or biotin-HN that produced 50% of maximum binding
T4 construct: We therefore elected to use the full‐length IGFBP‐3 protein to examine the effect of glycosylation; purchased MyBioSource MBS142177
T4 sequence (P17936 28-291): as above
Experimental: as §1

[3] = molecular target: binding of biotin‐HA to immobilized IGFBP‐3; assay: ELISA, competition of CD44 with IGFBP-3 for binding HA; set-up: species or system human; settings: for IC50: 10 nM glycosylated IGFBP-3 coated, biotin-HA 100 nM incubated 1 h with CD44 0–1000 nM, mean ± SD of three independent experiments in triplicate, read-out: concentration of CD44 that produced 50% of maximum binding (50% inhibition of biotin-HA binding to IGFBP-3)
Experimental: ELISA was conducted as we reported previously. Nunc MaxiSorp 96‐well flat‐bottom plates (Thermo Fisher, Waltham, MA, USA) were coated with samples as indicated. The plates were incubated overnight at 4 °C on a shaker to allow binding of the samples to the plate wells. After the incubation, the wells were washed 4× with TBST, filled with 400 µL blocking buffer (110 mM KCl, 5 mM NaHCO3, 5 mM MgCl2, 1 mM EGTA, 0.1 mM CaCl2, 20 mM HEPES, 1% BSA, pH 7.4), and incubated overnight at 4 °C on a shaker. The wells were then washed 4× with TBST, and 100 µL of sample at the desired concentration was added to each well before incubating overnight at 4 °C on a shaker. TBST was then used to wash the wells 4× before proceeding in one of two ways: (a) Biotinylated samples were analyzed by adding 100 µL streptavidin–HRP conjugate in TBST (1 : 2500 dilution) to the samples before incubating for 3 h at RT on a shaker, or (b) samples without biotin were analyzed by adding 100 µL TBST containing the primary antibody at the manufacturer's recommendation and incubating for 3 h at RT on a shaker before washing 4× with TBST. The secondary antibody in 100 µL TBST was then added to the samples following the manufacturer's recommendation and incubated for 1 h at RT on a shaker. Plates containing either biotinylated or nonbiotinylated samples were then washed 5× with TBST followed by the addition of 100 µL TMB resulting in a blue color change. The reaction was stopped with 100 µL 2 M H2SO4 after incubating at RT for 0.5–15 min, resulting in a yellow color change that was measured by absorbance at 450 nm. To monitor nonspecific binding, negative control wells on the plates included, for example, bound IGFBP‐3 then adding all components, streptavidin–horseradish peroxidase and TMB, but without addition of biotin‐HN. Some wells were coated with 2.5, 10, 50, 100, 500, and 5000 nM biotin‐HN or biotin‐HA to allow conversion of the OD measurements to concentrations of bound material. Before analysis, the OD from the data was corrected for nonspecific binding by subtracting the mean background absorbance for the negative controls. Typically, in control wells incubated on each plate, the background binding is about 10–15% of the maximum binding seen with addition of biotin‐HN or biotin‐HA or antibodies. Statistical analysis was determined by the GRAPHPAD PRISM 8.4.2 software (San Diego, CA, USA). Data were expressed as the mean ± SD. Three to five independent experiments were carried out in triplicate for each assay condition.
Glycosylated recombinant His‐tagged IGFBP‐3 (Speed BioSystems) and nonglycosylated recombinant IGFBP‐3 (MyBioSource, San Diego, CA, USA) were used as reported earlier. Glycosylated human CD44 recombinant protein was purchased from Sino Biological (Wayne, PA, USA). To cleave N‐linked glycans, the proteins were treated with PNGase F for 4 h at 37 °C under nondenaturing conditions according to the manufacturer's specification. To reduce the proteins and following previous protocols, the purified proteins were reduced with TCEP‐HCl (2.5 mM in PBS/1%BSA for 20 min at 4 °C) and then alkylated by 5 mM NEM for 30 min at 4 °C, to permanently block disulfide bond formation. As control, nonreduced samples treated with only 5 mM NEM were used. […]

[4] = system: IGFBP‐3 interaction with importin‐β1; settings: in vitro; cited from earlier work
Source text: (§2) Humanin (HN), first discovered by the Nishimoto laboratory, is a mitochondrial‐derived peptide known to bind with high affinity and specificity to the 18‐amino acid residue (215–232) heparin‐binding domain of IGFBP‐3 [54] that also binds HA.

amyloid‐β = settings: aggregation induced by acetylcholinesterase; cited from earlier work
Source text: as §2

[5] = system: A549 human NSCLC cells (CD44-expressing); assay: MTT cell viability, A549; format: cell-based; settings: protein 50 nM, 48 h, with or without 5F12
Experimental: (§3) HFL1 (ATCC CCL‐153) normal, nontransformed, and nontumorigenic human fibroblast cell line and the human NSCLC cell line, A549 (ATCC CCL‐185), were purchased from the American Type Culture Collection (ATCC, Manassas, VA, USA). Cells were seeded as we reported earlier in 5 mL HyClone Dulbecco's modified Eagle's medium/nutrient mixture F‐12 (DMEM/F12) (GE Healthcare Life Sciences, Pittsburgh, PA, USA), supplemented with 10% Fetalgro bovine growth serum (FBS; RMBIO, Missoula, MT, USA), 50 U·mL^−1 penicillin, and 50 U·mL^−1 streptomycin (Invitrogen Life Technologies, Carlsbad, CA, USA) in 25‐cm^2 tissue culture flasks, and allowed to grow overnight in an incubator at 37 °C, 95% humidity, and 5% CO2. Cells were counted with a hemocytometer after trypan blue staining.
(§4) The MTT reduction assay (Sigma‐Aldrich), used to measure cell viability, was employed as we reported earlier. […] The absorbance was measured at 570 nm in a plate reader. […]
(§5) (A) IGFBP‐3 peptides (50 nM each) were bound to the ELISA plate wells, and then, 200 nM biotin‐HA was added and processed as described in the Materials and methods section. The data were normalized to the control incubated with BSA (control 1), and fold change relative to the control was calculated. […] Cell viability was assessed by the MTT assay. […]

[6] = system: HFL1 normal human fibroblast cells (CD44-negative); assay: MTT cell viability, HFL1; format: cell-based; settings: protein 50 nM, 48 h, with or without 5F12
Experimental: as §3, §4, §5

[7] = after reduction; cited from earlier work
Source text: We next tested whether reduction of CD44 affects its ability to compete with IGFBP‐3 for binding HA. […] Reduction of this bond inhibited HA‐CD44 interaction in vitro, and the ability of cells to adhere to HA‐coated surfaces was blocked by pretreatment with reducing agents. Moreover, reductio ...

Substance: Biotin‐HN: biotin-HN (B-018-26, UniProt Q8IVG9), Phoenix Pharmaceuticals; biotinylated humanin
EC50 (IGFBP‐3 Glycosylated): 0.104 ± 0.014 µM
EC50 [1]: 0.098 ± 0.016 µM
EC50 (IGFBP‐3 Nonglycosylated): 0.092 ± 0.016 µM
EC50 [2]: 0.096 ± 0.012 µM

IC50 [3]: 0.21 ± 0.041 µM
Substance: CD44 Glycosylated/Reduced: glycosylated CD44, reduced with TCEP-HCl then alkylated by NEM

IC50 [3]: 0.128 ± 0.024 µM
Substance: CD44 Glycosylated: Glycosylated human CD44 recombinant protein (Sino Biological)

IC50 [3]: 0.176 ± 0.037 µM
Substance: CD44 Nonglycosylated/Reduced: PNGase F treated CD44, reduced with TCEP-HCl then alkylated by NEM

IC50 [3]: 0.009 ± 0.002 µM
Substance: CD44 Nonglycosylated: human recombinant CD44 treated with PNGase F to cleave N-linked glycans
ability of CD44 to block HA-IGFBP-3 interaction (in words) ([3]; 10 nM IGFBP-3 coated, biotin-HA 100 nM): more efficient at inhibiting the binding of biotin‐HA to immobilized IGFBP‐3 than glycosylated CD44

Substance: HN: mitochondrial-derived peptide binding the 18-amino acid residue (215–232) heparin-binding domain of IGFBP-3 (MAPRGFSCLLLLTSEIDLPVKRRA-NH2; UniProt Q8IVG9 1-24, looked up)
effect on IGFBP-3–importin-β1 interaction (in words) [4]: blocks its interaction with importin‐β1 in vitro
effect on amyloid-β aggregation (in words) (amyloid‐β): aggregation of amyloid‐β induced by acetylcholinesterase is blocked by the presence of HN

Substance: glycosylated IGFBP‐3 protein: Glycosylated recombinant His-tagged IGFBP-3 (Speed BioSystems)
A549 cell viability, IGFBP-3 proteins (in words) [5]: a comparable decrease in A549 cell viability
HFL1 cell viability, IGFBP-3 proteins (in words) [6]: lack of effect

Substance: nonglycosylated IGFBP‐3 protein: nonglycosylated recombinant IGFBP-3 (MyBioSource)
A549 cell viability, IGFBP-3 proteins (in words) [5]: a comparable decrease in A549 cell viability
HFL1 cell viability, IGFBP-3 proteins (in words) [6]: lack of effect

Substance: recombinant soluble CD44: recombinant soluble CD44 of ref 47
effect of reduction on ability of CD44 to bind HA (in words) [7]: inhibit its ability to bind HA
